In patent publication US20040138199A1, “Benzoxazines and derivatives thereof as therapeutic agents” (priority 2002, published 2004) one finds IC50 data, which are given here for 20 molecules.

The experiment deals with T1, p101/p110γ protein (PI3Kγ) (Homo sapiens, UniProt P48736).
T1 construct: HA; made in house; host or cells: Spodoptera frugiperda (Sf9) cells, baculovirus coinfection
As to the kind of experiment: PI3Kγ In Vitro Kinase Assay. The settings on record: purified recombinant p101/p110γ with G protein β1/γ2 subunits; 20 μM ATP, 25 μM PIP2; 20 minutes at room temperature; radioactive PIP3 readout. Format: biochemical. The procedure, abridged: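 Baculovirus/Sf9-expressed p101/p110γ (~2.7 nM) with G protein β1/γ2, 20 μM ATP plus [γ-32P]ATP, PIP2/PE micelles (25 μM PIP2, 300 μM PE, 10 mM MgCl2) in HEPES buffer. Reaction 20 min at room temperature, stopped with H3PO4; radiolabelled PIP3 counted on filters to derive IC50 (μM).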

T1 sequence (P48736 whole entry, species assumed): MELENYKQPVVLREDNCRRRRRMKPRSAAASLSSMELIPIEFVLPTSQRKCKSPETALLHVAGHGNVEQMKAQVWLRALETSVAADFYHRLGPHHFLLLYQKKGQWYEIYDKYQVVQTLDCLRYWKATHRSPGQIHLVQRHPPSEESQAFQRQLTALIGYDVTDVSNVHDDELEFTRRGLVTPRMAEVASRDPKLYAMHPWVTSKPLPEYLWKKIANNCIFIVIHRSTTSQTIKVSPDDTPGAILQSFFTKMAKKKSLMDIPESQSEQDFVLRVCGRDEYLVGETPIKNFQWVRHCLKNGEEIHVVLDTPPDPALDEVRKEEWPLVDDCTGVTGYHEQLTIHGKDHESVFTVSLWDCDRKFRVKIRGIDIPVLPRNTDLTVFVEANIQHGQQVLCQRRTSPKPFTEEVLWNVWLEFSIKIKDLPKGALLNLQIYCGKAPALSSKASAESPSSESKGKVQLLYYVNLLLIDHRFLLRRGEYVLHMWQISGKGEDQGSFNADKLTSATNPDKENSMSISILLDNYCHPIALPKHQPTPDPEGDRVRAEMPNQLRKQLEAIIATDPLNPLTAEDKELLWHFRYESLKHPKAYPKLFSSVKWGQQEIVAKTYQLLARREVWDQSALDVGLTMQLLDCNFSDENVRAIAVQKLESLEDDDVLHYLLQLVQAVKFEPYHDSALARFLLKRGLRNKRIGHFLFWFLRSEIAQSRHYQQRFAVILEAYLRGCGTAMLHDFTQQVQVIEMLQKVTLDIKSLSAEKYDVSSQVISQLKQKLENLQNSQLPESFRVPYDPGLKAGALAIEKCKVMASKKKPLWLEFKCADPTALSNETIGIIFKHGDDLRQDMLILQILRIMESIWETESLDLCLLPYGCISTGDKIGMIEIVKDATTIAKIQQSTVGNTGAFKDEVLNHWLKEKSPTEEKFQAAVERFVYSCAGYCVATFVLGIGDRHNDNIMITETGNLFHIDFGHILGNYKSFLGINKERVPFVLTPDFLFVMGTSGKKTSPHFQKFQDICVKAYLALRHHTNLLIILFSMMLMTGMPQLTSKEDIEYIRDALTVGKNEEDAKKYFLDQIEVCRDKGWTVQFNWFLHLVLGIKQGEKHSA
T1 sequence (Q8WYR1 whole entry partner, species assumed): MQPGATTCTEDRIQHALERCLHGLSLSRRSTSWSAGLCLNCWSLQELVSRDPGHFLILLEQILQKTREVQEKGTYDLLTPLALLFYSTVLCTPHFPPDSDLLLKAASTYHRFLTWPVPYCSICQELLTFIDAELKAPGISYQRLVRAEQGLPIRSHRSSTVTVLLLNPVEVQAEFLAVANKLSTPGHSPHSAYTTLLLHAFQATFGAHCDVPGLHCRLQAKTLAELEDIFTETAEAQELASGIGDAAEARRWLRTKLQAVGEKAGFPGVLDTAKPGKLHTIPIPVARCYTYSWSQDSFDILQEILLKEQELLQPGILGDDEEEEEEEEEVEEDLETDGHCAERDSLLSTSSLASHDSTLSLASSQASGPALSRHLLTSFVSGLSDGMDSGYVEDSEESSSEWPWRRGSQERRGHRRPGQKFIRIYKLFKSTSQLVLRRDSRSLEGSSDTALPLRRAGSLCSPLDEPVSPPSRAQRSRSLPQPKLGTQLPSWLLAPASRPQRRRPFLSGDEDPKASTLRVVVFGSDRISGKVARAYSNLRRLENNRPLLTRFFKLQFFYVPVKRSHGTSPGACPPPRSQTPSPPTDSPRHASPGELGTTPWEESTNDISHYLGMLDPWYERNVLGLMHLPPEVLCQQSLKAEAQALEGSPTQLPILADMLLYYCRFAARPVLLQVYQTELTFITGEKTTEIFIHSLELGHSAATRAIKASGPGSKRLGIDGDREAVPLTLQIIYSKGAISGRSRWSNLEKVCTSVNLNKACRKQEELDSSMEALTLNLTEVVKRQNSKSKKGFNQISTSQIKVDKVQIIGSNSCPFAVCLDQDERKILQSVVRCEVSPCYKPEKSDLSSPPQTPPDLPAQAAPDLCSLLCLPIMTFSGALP

As a reminder, the IC50 is the point on the concentration scale where inhibition reaches its midpoint. Regarding `CCC(=O)N1CCOc2ccc(C=C3SC(=S)NC3=O)cc21` [Example 93, 4-(4-Propionyl-3,4-dihydro-2H-1,4-benzoxazin-6-ylmethylene)-2-thioxo-thiazolidin-4-one], the half-inhibitory concentration (IC50) was found to be 12 nM.
`CCCC(=O)N1CCOc2ccc(C=C3SC(=S)NC3=O)cc21` [Example 94, 5-(4-Butyryl-3,4-dihydro-2H-1,4-benzoxazin-6-ylmethylene)-2-thioxo-thiazolidin-4-one]: the IC50 came to 10 nM.
For `CCCCCC(=O)N1CCOc2ccc(C=C3SC(=S)NC3=O)cc21` [Example 95, 5-(4-Hexanoyl-3,4-dihydro-2H-1,4-benzoxazin-6-ylmethylene)-2-thioxo-thiazolidin-4-one], the IC50 amounted to 8 nM.
With `CCCCC(=O)N1CCOc2ccc(C=C3SC(=S)NC3=O)cc21` [Example 96, 5-(4-Pentanoyl-3,4-dihydro-2H-1,4-benzoxazin-6-ylmethylene)-2-thioxo-thiazolidin-4-one], the IC50 was found to be 5 nM.
For `CC(C)(C)C(=O)N1CCOc2ccc(C=C3SC(=S)NC3=O)cc21` [Example 97, 5-[4-(2,2-Dimethyl-propionyl)-3,4-dihydro-2H-1,4-benzoxazin-6-ylmethylene]-2-thioxo-thiazolidin-4-one] the value was 1610 nM; for `CCCCCCCCC(=O)N1CCOc2ccc(C=C3SC(=S)NC3=O)cc21` [Example 98, 5-[4-(4-Nonanoyl)-3,4-dihydro-2H-1,4-benzoxazin-6-ylmethylene]-2-thioxo-thiazolidin-4-one], 25 nM.
For `CCCCC(CC)C(=O)N1CCOc2ccc(C=C3SC(=S)NC3=O)cc21` (centres unmarked) [Example 99, 5-[4-(2-Ethyl-hexanoyl)-3,4-dihydro-2H-1,4-benzoxazin-6-ylmethylene]-2-thioxo-thiazolidin-4-one] the value was 275 nM; for `CC(=O)OC(C)C(=O)N1CCOc2ccc(C=C3SC(=S)NC3=O)cc21` (centres unmarked) [Example 100, Acetic acid 1-methyl-2-oxo-2-[6-(4-oxo-2-thioxo-thiazolidin-5-ylidenemethyl)-2,3-dihydro-1,4-benzoxazin-4-yl]-ethyl ester], 535 nM; for `COC(=O)CCC(=O)N1CCOc2ccc(C=C3SC(=S)NC3=O)cc21` [Example 101, 4-Oxo-4-[6-(4-oxo-2-thioxo-thiazolidin-5-ylidenemethyl)-2,3-dihydro-1,4-benzoxazin-4-yl]-butyric acid methyl ester], 20 nM.
For `CC(=O)N1CCC(C(=O)N2CCOc3ccc(C=C4SC(=S)NC4=O)cc32)CC1` [Example 102, 5-[4-(1-Acetyl-piperidine-4-carbonyl)-3,4-dihydro-2H-1,4-benzoxazin-6-ylmethylene]-2-thioxo-thiazolidin-4-one] the value was 37 nM; for `O=C1NC(=S)SC1=Cc1ccc2c(c1)NCCCO2` [Example 103, 5-(6,7,8,9-Tetrahydro-5-oxa-9-aza-benzocyclohepten-2-ylmethylene)-2-thioxo-thiazolidin-4-one], 445 nM.
As to `O=C1NC(=S)SC1=Cc1ccc2c(c1)N(C(=O)Oc1cccc3ccccc13)CCCO2` [Example 106, 2-(4-Oxo-2-thioxo-thiazolidin-5-ylidenemethyl)-7,8-dihydro-6H-5-oxa-9-aza-benzocycloheptene-9-carboxylic acid naphthalen-1-yl ester], the IC50 turned out to be 400 nM.
To `COC(=O)c1ccc(OC(=O)N2CCCOc3ccc(C=C4SC(=S)NC4=O)cc32)cc1` [Example 108, 2-(4-Oxo-2-thioxo-thiazolidin-5-ylidenemethyl)-7,8-dihydro-6H-5-oxa-9-aza-benzocycloheptene-9-carboxylic acid 4-methoxycarbonyl-phenyl ester] belongs 640 nM; to `O=C1NC(=S)SC1=Cc1ccc2c(c1)N(C(=O)COc1ccc(Cl)cc1)CCCO2` [Example 109, 5-{9-[2-(4-Chloro-phenoxy)-acetyl]-6,7,8,9-tetrahydro-5-oxa-9-aza-benzocyclohepten-2-ylmethylene}-2-thioxo-thiazolidin-4-one], 2030 nM.
On to `O=C1NC(=S)SC1=Cc1ccc2c(c1)N(C(=O)c1ccc3nonc3c1)CCCO2` [Example 116, 5-[9-(Benzofurazan-5-carbonyl)-6,7,8,9-tetrahydro-5-oxa-9-aza-benzocyclohepten-2-ylmethylene]-2-thioxo-thiazolidin-4-one], for which the IC50 is 1530 nM.
Consider `O=C1NC(=S)SC1=Cc1ccc2c(c1)N(C(=O)c1cccnc1)CCCO2` [Example 117, 5-[9-(Pyridine-3-carbonyl)-6,7,8,9-tetrahydro-5-oxa-9-aza-benzocyclohepten-2-ylmethylene]-2-thioxo-thiazolidin-4-one], for which the IC50 is 1910 nM.
For `O=C1NC(=S)SC1=Cc1ccc2c(c1)N(C(=O)Nc1ccc(Oc3ccccc3)cc1)CCCO2` [Example 118, 2-(4-Oxo-2-thioxo-thiazolidin-5-ylidenemethyl)-7,8-dihydro-6H-5-oxa-9-aza-benzocycloheptene-9-carboxylic acid (4-phenoxy-phenyl)-amide] the value was 1870 nM; for `O=C1NC(=S)SC1=Cc1ccc2c(c1)N(C(=O)Nc1ccc(Cl)cc1C(F)(F)F)CCCO2` [Example 120, 2-(4-Oxo-2-thioxo-thiazolidin-5-ylidenemethyl)-7,8-dihydro-6H-5-oxa-9-aza-benzocycloheptene-9-carboxylic acid (4-chloro-2-trifluoromethyl-phenyl)-amide], 1870 nM; for `COc1cccc(NC(=O)N2CCCOc3ccc(C=C4SC(=S)NC4=O)cc32)c1` [Example 122, 2-(4-Oxo-2-thioxo-thiazolidin-5-ylidenemethyl)-7,8-dihydro-6H-5-oxa-9-aza-benzocycloheptene-9-carboxylic acid (3-methoxy-phenyl)-amide], 2170 nM.
For `O=C1NC(=S)SC1=Cc1ccc2c(c1)N(C(=O)c1ccco1)CCCO2` [Example 123, 5-[9-(Furan-2-carbonyl)-6,7,8,9-tetrahydro-5-oxa-9-aza-benzocyclohepten-2-ylmethylene]-2-thioxo-thiazolidin-4-one] the value was 3900 nM.
